In patent US4076947A, “Cycloalkyl and cycloalkenyl prostaglandin congeners” (American Cyanamid Company, priority 1977, dated 1978):
Like-named read-outs stand apart in the source and are kept apart here.

Legend:
Format in all cases: in vivo
[1] = system: bronchospasms elicited by intravenous injections of histamine; test: Bronchodilator activity, Konzett procedure, against histamine; conditions: three logarithmic cumulative intravenous doses, guinea pigs
Description: (§1) Bronchodilator activity was determined in guinea pigs against bronchospasms elicited by intravenous injections of 5-hydroxytryptamine, histamine or acetylcholine by the Konzett procedure. [See J. Lulling, P. Lievens, F. El Sayed and J. Prignot, Arzneimittel-Forschung, 18, 995 (1968)].
(§2) In the Table which follows bronchodilator activity for representative compounds of this invention against one or more of three spasmogenic agents is expressed as an ED50 determined from the results obtained with three logarithemic cumulative intravenous doses.

[2] = system: ulcerogenic properties of indomethacin; test: Protection against indomethacin-induced gastric ulcers in rats (ulcer score); conditions: total oral dose 6.25 mg./kg. in two halves; indomethacin 20 mg./kg. s.c.; scale 0-4; control score 3.0; lowering by 0.5 or more = active
Source text: The novel compounds of the present invention have potential utility as hypotensive agents, anti-ulcer agents, agents for the treatment of gastric hypersecretion and gasteric erosion, bronchodilators, abortifacients, agents for the induction of labor, agents for the induction of menses, fertility-controlling agents, central nervous system regulatory agents, salt and water-retention regulatory agents, diuretics, fat metabolic regulatory agents, serum-cholesterol lowering agents, anti-inflammatory agents and as agents for the inhibition of platelet aggregation. […] The compounds of this invention provide protection against the ulcerogenic properties of indomethacin. A measure of this utility which also measures potential anti-ulcer properties is the assay which follows.
Rats were starved for 48 hours (water was given ad libitum). Indomethacin (20 mg./kg. of body weight) was administered by the subcutaneous route and one-half the dose of the test compound was administered by gavage at the same time. After three hours, the second half of the test compound was administered also by gavage. Five hours after the administration of indomethacin the animals were decapitated and the stomachs removed. The stomachs were washed with distilled water, blotted on gauze, cut along the larger curvature, and the contents rinsed with distilled water. […]

[3] = system: bronchospasms elicited by intravenous injections of 5-hydroxytryptamine; test: Bronchodilator activity, Konzett procedure, against 5-hydroxytryptamine; conditions: Cavia porcellus, three logarithmic cumulative intravenous doses, guinea pigs, read-out: ED50, spasmogenic agent 5-hydroxytryptamine
Description: as §1, §2

[4] = system: bronchospasms elicited by intravenous injections of acetylcholine; test: Bronchodilator activity, Konzett procedure, against acetylcholine; conditions: Cavia porcellus, three logarithmic cumulative intravenous doses, guinea pigs, read-out: ED50, spasmogenic agent acetyl choline
Description: as §1, §2

Compound | Score, Treated [2] | ED50 [3] [mg/kg] | ED50 [4] [mg/kg] | also measured
O=C(O)CCCCCCC1C(=O)CC(O)C1C=CC(O)CC1CCCC1 (stereo not drawn) [d,l 9-oxo-11α,15-epi-dihydroxy-17,20-methano-13-trans-proste] [d,l 9-oxo-11α,15-epi-dihydroxy-17,20-methano-13-trans-prostenoic acid] | 2.3 | – | – | ED50, spasmogenic agent histamine ([1]; listed as d,1-9-oxo-11α-15-epi-dihydroxy-17,20-methano-13-trans-prostenoic acid): 0.042 mg/kg
O=C(O)CCCCCCC1C(=O)CC(O)C1C=CC(O)CC1CCCC1 (stereo not drawn) [d,l 9-oxo-11α,15-epi-dihydroxy-17,20-methano-13-trans-prostenoic acid] | – | – | – | ED50 ([3]; no power of ten printed): 0.228 mg/kg
O=C(O)CCCCCCC1C(=O)CC(O)C1C=CC(O)CC1CCCC1 (stereo not drawn) [d,l 9-oxo-11α,15-dihydroxy-17,20-methano-13-trans-prostenoic] [d,l 9-oxo-11α,15-dihydroxy-17,20-methano-13-trans-prostenoic acid] | 1.5 | – | – | ED50, spasmogenic agent histamine ([1]; listed as d,1-9-oxo-11α-15-dihydroxy-17,20-methano-13-trans-prostenoic acid): 0.000444 mg/kg
O=C(O)CCCCCCC1C(=O)CC(O)C1C=CC(O)CC1CCCC1 (stereo not drawn) [d,l 9-oxo-11α,15-dihydroxy-17,20-methano-13-trans-prostenoic acid] | – | 0.0018 | 0.0013 | –
O=C(O)CCCCCCC1C(=O)C=CC1C=CC(O)CC1CCCC1 (stereo not drawn) [d,1-9-oxo-15-hydroxy-17,20-methano-10,13-trans-prostadienoic acid] | – | 0.0546 | 0.292 | ED50 ([1]; Cavia porcellus, iv, read-out: ED50, spasmogenic agent histamine): 0.041 mg/kg
